# Literature values, collected in patent US20040089561A1, “Method and package for storing a pressurized container containing a drug” (priority 1999, published 2004).
# Settings: water in the propellant
row,SMILES,maximum water solubility
1,FC(F)(Cl)Cl [CFC 12],about 130 ppm
2,FC(F)(Cl)C(F)(F)Cl [CFC 114],about 130 ppm
3,FCC(F)(F)F [HFC 134a],about 2200 ppm
